Reference: patent US5994361A, “Substituted purinyl derivatives with immunomodulating activity” (priority 1995, dated 1999)

What was measured:
[1] = Body weight, compound #1 with Cytoxan 28 mg/kg (Example 94); format: in vivo, Balb/c mice; parameters: body weight: unit not given here
Protocol: In another experiment, the CTX treatment was prolonged. Balb/c mice were injected s.c. with 5×10^5 DA-3 tumor cells at day 0. At day 4 when established tumors appeared, tumor-bearing animals were randomized (n=11/gr.) and injected with CTX (at 28 mg/kg) i.v. bolus injections at days 4, 11, and 18. […]

[2] = test system: cytotoxic T lymphocytes, P815 target cells; experiment: Cytotoxic T lymphocytes (CTL) assay; format: cell-based, C57B1/6 mice and DBA/2 mice; conditions: Mus musculus, P815, 120 h; at 10^-9 M; read-out: CTL activity, % increase compared to IL2 (100%)
Protocol: Mixed lymphocyte reaction is an in vitro counterpart of the allograft rejection. Briefly, T cell response was obtained when cells taken from two inbred strains from two outbred individuals of any species were mixed in vitro in culture.
After 4 days incubation, ^3 H thymidine uptake and cytotoxicity assay (CTL) were performed.
3 C57B1/6 mice and 3 DBA/2 mice wre killed and lymphocytes prepared using lympholyte M. The cell concentration was adjusted to 10×10^6 cell/ml for each lysis. DBA/2 cells were irradiated with 3000 Rads. 1 ml of the C57 cells+1 ml of the DBA/2 cells+1 ml of the drug at 3 different concentrations were incubated together for 5 days. Positive control was IL-2 at 15 ng/ml final. After 5 days, the CTL and MLR tests were carried out.
P815 target cells were labelled with Cr^51. After labelling, the cells were resuspended to 5×10^4 cells/ml.
100 μl of target cells+100 μl Of T cells were incubated for 4 hrs and then 100 μl of supernatant was counted using a gamma counter.

blood cells [3] = experiment: Immunophenotyping on blood cells, combination with cyclophosphamide; format: in vivo, C57/BLJ6 mice; conditions: N = 4
Protocol: (§1) After in vivo drugs analysis, the drugs were evaluated on whole blood for drug stability and toxicity. Furthermore, in vivo/ex vivo analysis was performed on normal and cyclophosphamide immunosuppressed animals plus 5Fu-treated animals. Cell immunophenotyping was performed on mouse-treatedblood and spleen. The following cell surface antigens were analyzed:
(§2) CD3 (all T cells), CD4 (T helper/inducer, binds class II-restricted T cells), CD8a (cytotoxic T cells, CTL adhesion), CD11a (T, B, NK, some stem cells, CTL adhesion anti LFA-1α), MAC-1 (monocyte/macrophage), NK (natural killer cells), Ly5 (B cells), CD45 (all leukocytes, protein tyrosine phosphates), and TCR (T cell receptor).
(§3) C57/BLJ6 mice (6-8 weeks old) were injected daily for 4 consecutive days, sacrificed at day 5 and immunophenotyping was performed on blood and spleen cells.
(§4) The cells were washed twice in PBS, resuspended in 1 ml of RPMI 2% FBS, and incubated for 45 min. on ice with monoclonal antibody. The cells were washed once, fixed with 1% paraformaldehyde, then analyzed using XL Coulter® counter.

DA-3 mammary carcinoma = experiment: Tumor outgrowth of breast carcinoma, with cyclophosphamide (Example 92); format: in vivo, Balb/C mice
Protocol: Balb/C Mice (n-5/Gr) were used along with DA-3 mammary carcinoma cell line. The mice were treated from -2 to 13 days. Animals were monitored for tumor takes/tumor size and body weights for three weeks from Day 0 until Day 21. D0 was the day of tumor cell inoculation and D21 was the day of experiment termination.
Parameters of effect were measured by inhibition of tumor outgrowth and growth rate [tumors measured along the longest axis (length) and the perpendicular shortest axis (width) and the tumor volumes (T.V.±S.E.) was calculated by the formula T.V.=length (cm)×(width cm)^2 /2.] assessment of body weight loss.
The statistical significance of difference between tumor takes and tumor sizes of control-untreated and drug-treated groups is estimated using the Chi-square and Student's t tests respectively with significance determined at n<0.05.
The mice were divided into the following 5 groups:
Gr.1--Normal Saline (0.2 ml/mouse i.p. starting at D2)
Gr.2--CY (100 mg/kg single bolus i.v. at D0)
Gr.3--Compound #1 (25 mg/kg i.p. starting at D2)
Gr.4--Compound #1 (50 mg/kg i.p. starting at D2)
Gr.5--CY (100 mg/kg i.v. at D0+compound #1 50 mg/kg i.p. starting at D2)

blood cells [4] = experiment: Immunophenotyping on blood cells of compound #1 treated mice; format: in vivo, C57/BLJ6 mice; parameters: unit not given here; conditions: N = 10; for CD8+ CD45+ (mean): daily 4 days
Protocol: as §1, §2, §3, §4

For CN(C)c1ncnc2c1ncn2CCCCCOC(=O)N[C@H](CCCNC(=N)N)C(=O)O [Compound #1, N,N-Dimethylaminopurinyl Pentoxycarbonyl D-Arginine], the body weight ([1]; BCH-1393 50 mg/kg + CTX 28 mg/kg, day 7) was 18.2, the body weight ([1]; BCH-1393 50 mg/kg + CTX 28 mg/kg, day 9) was 19.1 and the body weight ([1]; BCH-1393 50 mg/kg + CTX 28 mg/kg, day 11) was 19.0. The body weight ([1]; BCH-1393 50 mg/kg + CTX 28 mg/kg, day 14) was 18.6, the body weight ([1]; BCH-1393 50 mg/kg + CTX 28 mg/kg, day 16) was 19.5 and the body weight ([1]; BCH-1393 50 mg/kg + CTX 28 mg/kg, day 18) was 19.3. It also gave a body weight ([1]; BCH-1393 50 mg/kg + CTX 28 mg/kg, day 21) of 18.9, a body weight ([1]; BCH-1393 50 mg/kg + CTX 28 mg/kg, day 23) of 18.8 and a body weight ([1]; BCH-1393 50 mg/kg + CTX 28 mg/kg, day 25) of 19.5. The body weight ([1]; BCH-1393 50 mg/kg + CTX 28 mg/kg, day 28) was 19.4, the body weight ([1]; BCH-1393 50 mg/kg + CTX 28 mg/kg, day 30) was 19.3 and the body weight ([1]; BCH-1393 50 mg/kg Ip (Days 3-28) + CTX 28 mg/kg Iv (days 4, 11, 18), day 4) was 18.7. For the same compound, the body weight loss ([1]; compound #1 50 mg/kg + CTX 28 mg/kg) was “No significant body weight loss”, the body weight ([1]; single agent (CTX 28 mg/kg days 4, 11, 18, or BCH-1393 50 mg/kg days 3-28), day 4) was 18.6 and the body weight ([1]; single agent (CTX 28 mg/kg or BCH-1393 50 mg/kg), day 7) was 19.1. It also gave a body weight ([1]; single agent (CTX 28 mg/kg or BCH-1393 50 mg/kg), day 9) of 19.3, a body weight ([1]; single agent (CTX 28 mg/kg or BCH-1393 50 mg/kg), day 11) of 18.9 and a body weight ([1]; single agent (CTX 28 mg/kg or BCH-1393 50 mg/kg), day 14) of 18.9. It also gave a body weight ([1]; single agent (CTX 28 mg/kg or BCH-1393 50 mg/kg), day 16) of 19.5, a body weight ([1]; single agent (CTX 28 mg/kg or BCH-1393 50 mg/kg), day 18) of 18.9 and a body weight ([1]; single agent (CTX 28 mg/kg or BCH-1393 50 mg/kg), day 21) of 19.3. For the same compound, the body weight ([1]; single agent (CTX 28 mg/kg or BCH-1393 50 mg/kg), day 23) was 19.3, the body weight ([1]; single agent (CTX 28 mg/kg or BCH-1393 50 mg/kg), day 25) was 19.5 and the body weight ([1]; single agent (CTX 28 mg/kg or BCH-1393 50 mg/kg), day 28) was 19.7. The body weight ([1]; single agent (CTX 28 mg/kg or BCH-1393 50 mg/kg), day 30) was 20.0, the activation at 0.001 µM [2] was > 80% and the “CP8+ CD45+ (mean)” value (blood cells [3]; CY + cpd #1 25 mg/kg) was 13.25. For the same compound, the “CP8+ CD45+ (mean)” value (blood cells [3]; CY + cpd #1 50 mg/kg) was 20.8, the Tumor takes (DA-3 mammary carcinoma; #1 25 mg/kg, day 4) was 2/5 and the Tumor takes (DA-3 mammary carcinoma; #1 25 mg/kg, day 6) was 2/5. The Tumor takes (DA-3 mammary carcinoma; #1 25 mg/kg, day 8) was 3/5, the Tumor takes (DA-3 mammary carcinoma; #1 25 mg/kg, day 10) was 4/5 and the Tumor takes (DA-3 mammary carcinoma; #1 50 mg/kg, day 4) was 3/5. The Tumor takes (DA-3 mammary carcinoma; #1 50 mg/kg, day 6) was 3/5, the Tumor takes (DA-3 mammary carcinoma; #1 50 mg/kg, day 8) was 3/5 and the Tumor takes (DA-3 mammary carcinoma; #1 50 mg/kg, day 10) was 3/5. The Tumor takes (DA-3 mammary carcinoma; CY 100 mg/kg + #1 50 mg/kg, day 4) was 4/5, the Tumor takes (DA-3 mammary carcinoma; CY 100 mg/kg + #1 50 mg/kg, day 6) was 5/5 and the Tumor takes (DA-3 mammary carcinoma; CY 100 mg/kg + #1 50 mg/kg, day 8) was 5/5. The Tumor takes (DA-3 mammary carcinoma; CY 100 mg/kg + #1 50 mg/kg, day 10) was 5/5, the “CD11b+ (mean)” value (blood cells [4]; 25 mg/kg) was 13.71 and the “NK+ CD3+ (mean)” value (blood cells [4]; 25 mg/kg) was 5.84. The “NK+ CD3- (mean)” value (blood cells [4]; 25 mg/kg) was 5.90, the “CD8+ CD45+ (mean)” value (blood cells [4]; 25 mg/kg) was 10.11 and the “CD11b+ (mean)” value (blood cells [4]; 50 mg/kg) was 9.68. For the same compound, the “NK+ CD3+ (mean)” value (blood cells [4]; 50 mg/kg) was 3.25, the “NK+ CD3- (mean)” value (blood cells [4]; 50 mg/kg) was 8.14 and the “CD8+ CD45+ (mean)” value (blood cells [4]; 50 mg/kg) was 8.65.
